Values quoted from earlier work as cited in patent US20020169561A1, “Modular computational models for predicting the pharmaceutical properties of chemical compunds” (priority 2001, published 2002).
Values joined by “and” are separate entries in the source; they are usually repeats but may differ in a detail not shown here. Equal values may be shown once. Read-outs that look alike come from different tables or passages of the source.

Experiments:
[1] = in vivo drug absorption, compiled by search of the literature
[2] = test system: Caco-2 cell monolayer
[3] = target: T1, renin (Homo sapiens, UniProt P00797); set-up: −ΔS: unit not given here; settings: for −ΔH: enthalpy of binding to renin; for −ΔS: entropy of binding to renin; for −ΔG: free energy of binding to renin; for Kd: renin inhibitors
T1 sequence (P00797 67-406): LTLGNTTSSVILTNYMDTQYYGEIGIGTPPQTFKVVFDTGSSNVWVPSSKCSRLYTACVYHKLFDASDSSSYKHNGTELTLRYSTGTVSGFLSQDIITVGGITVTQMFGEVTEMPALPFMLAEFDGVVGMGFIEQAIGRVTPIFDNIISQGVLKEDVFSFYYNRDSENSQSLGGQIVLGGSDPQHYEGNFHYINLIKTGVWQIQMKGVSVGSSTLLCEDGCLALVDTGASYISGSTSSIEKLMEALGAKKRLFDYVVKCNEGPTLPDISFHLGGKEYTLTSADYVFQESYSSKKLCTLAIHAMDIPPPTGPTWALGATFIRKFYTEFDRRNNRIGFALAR

[4] = Caco-2 permeability coefficient, Table 3
[5] = observed, training set, Table 7

In the case of `OC[C@@H](O)[C@@H](O)[C@H](O)[C@H](O)CO` [Mannitol], the “% Absorbed” value [1] is given as 16% and the “Permeability × 10^6 (cm/sec)” value [2, 4] is given as 0.38 × 10^6 (cm/sec).

For “Ac-phe-his-phe-Y[CH2NH]phe-NH2 [Compound U73777E]”, the “−ΔH” value [3] is given as 14.20 kcal/mol, the “−ΔS” value [3] is given as 76.3 and the “−ΔG” value [3] is given as 9.4 kcal/mol. The Kd [3] was 220 nM.

In the case of “Ac-D-pro-phe-his-leu-Y[CH(OH)CH2]val-ile-NH2 [Compound U77647E]”, the “−ΔH” value [3] is listed as 20.33 kcal/mol, the “−ΔS” value [3] is listed as 105.5 and the “−ΔG” value [3] is listed as 12.4 kcal/mol. The Kd [3] was 1.3 nM.

For “Ac-pro-phe-his-phe-Y[CH2NH]phe-NH2 [Compound U71909E]”, the “−ΔH” value [3] is given as 13.70 kcal/mol, the “−ΔS” value [3] is given as 78.4 and the “−ΔG” value [3] is given as 10.6 kcal/mol. For the same molecule, the Kd [3] was 29 nM.

In the case of “Iva-his-pro-phe-his-sta-ile-phe-NH2 [Compound U77455E]”, the “−ΔH” value [3] is given as 21.36 kcal/mol, the “−ΔS” value [3] is given as 108.9 and the “−ΔG” value [3] is given as 12.4 kcal/mol. For the same molecule, the Kd [3] was 1.7 nM.

In the case of `Nc1nc(O)c2ncn(COC(CO)CO)c2n1` [Ganciclovir], the “% Absorbed” value [1] is listed as 3%.

For `CN(C)CCCN1c2ccccc2Sc2ccc(Cl)cc21` [Chlorpromazine], the “% Absorbed” value [1] is given as 90%, the “Permeability × 10^6 (cm/sec)” value [2, 4] is given as 19.90 × 10^6 (cm/sec) and the “Obs. Pcaco-2x10^6” value [2, 5] is given as 19.9 x10^6.

In the case of `CCC12CCN(CC3(O)CC3)C(Cc3ccc(O)cc31)C2(C)C` (stereo not shown) [Bremazocine], the “Permeability × 10^6 (cm/sec)” value ([2]; Caco-2) is listed as 8.02 × 10^6 (cm/sec) and the “Obs. Pcaco-2x10^6” value [2, 5] is listed as 8.02 x10^6.

In the case of “Ac-phe-his-leu-y[CH(OH)CH2]val-ile-NH2 [Compound U80631E]”, the “−ΔH” value [3] is given as 14.28 kcal/mol, the “−ΔS” value [3] is given as 75.7 and the “−ΔG” value [3] is given as 9.2 kcal/mol. For the same molecule, the Kd [3] was 370 nM.

For “Ac-phe-his-sta-ile-NH2 [Compound U72407E]”, the “−ΔH” value [3] is listed as 26.10 kcal/mol, the “−ΔS” value [3] is listed as 114.8 and the “−ΔG” value [3] is listed as 9.5 kcal/mol. The Kd [3] was 203 nM and 204 nM.

For `c1ccc(C2(N3CCCCC3)CCCCC2)cc1` [Phencyclidine], the “Obs. Pcaco-2x10^6” value ([2]; Caco-2) is given as 24.7 x10^6 and the “Permeability × 10^6 (cm/sec)” value ([2]; Caco-2) is given as 24.70 × 10^6 (cm/sec).

In the case of `COc1ccc2c(c1)c(CC(=O)O)c(C)n2C(=O)c1ccc(Cl)cc1` [Indomethacin], the “Permeability × 10^6 (cm/sec)” value [2, 4] is listed as 20.40 × 10^6 (cm/sec) and the “Obs. Pcaco-2x10^6” value [2, 5] is listed as 20.4 x10^6.

In the case of `NC(N)=O` [Urea], the “Permeability × 10^6 (cm/sec)” value [2, 4] is given as 4.56 × 10^6 (cm/sec).

In the case of `COCCc1ccc(OCC(O)CNC(C)C)cc1` (stereo not shown) [Metoprolol], the “Permeability × 10^6 (cm/sec)” value [2, 4] is listed as 23.70 × 10^6 (cm/sec) and the “Obs. Pcaco-2x10^6” value [2, 5] is listed as 23.7 x10^6.

In the case of `C[C@]12CC[C@H]3[C@@H](CCC4=CC(=O)CC[C@@]43C)[C@@H]1CC[C@@H]2O` [Testosterone], the “% Absorbed” value [1] is given as 100% and the “Obs. Pcaco-2x10^6” value ([2]; Caco-2) is given as 24.9 x10^6.

For `CC(C)(C)NCC(O)COc1cccc2c1CC(O)C(O)C2` (stereo not shown) [Nadolol], the “Permeability × 10^6 (cm/sec)” value [2, 4] is listed as 3.88 × 10^6 (cm/sec) and the “Obs. Pcaco-2x10^6” value [2, 5] is listed as 3.88 x10^6.

In the case of `CC(=O)[C@H]1CC[C@H]2[C@@H]3CCC4=CC(=O)CC[C@]4(C)[C@H]3CC[C@]12C` [Progesterone], the “Permeability × 10^6 (cm/sec)” value [2, 4] is listed as 23.70 × 10^6 (cm/sec) and the “Obs. Pcaco-2x10^6” value [2, 5] is listed as 23.7 x10^6.

For `Cc1c(N(C)C)c(=O)n(-c2ccccc2)n1C` [Aminopyrine], the “Permeability × 10^6 (cm/sec)” value [2, 4] is given as 36.5 × 10^6 (cm/sec).

For “Ac-pro-phe-his-leu-Y[CH(OH)CH2]val-ile-NH2 [Compound U77646E]”, the “−ΔH” value [3] is given as 28.75 kcal/mol, the “−ΔS” value [3] is given as 131.1 and the “−ΔG” value [3] is given as 11.5 kcal/mol. For the same molecule, the Kd [3] was 5.4 nM.

In the case of `CN1CCCC1c1cccnc1` (stereo not shown) [Nicotine], the “% Absorbed” value [1] is listed as 100%, the “Obs. Pcaco-2x10^6” value ([2]; Caco-2) is listed as 19.4 x10^6 and the “Permeability × 10^6 (cm/sec)” value ([2]; Caco-2) is listed as 19.40 × 10^6 (cm/sec).

For “Ac-his-pro-phe-his-sta-ile-NH2 [Compound U72409E]”, the “−ΔH” value [3] is listed as 22.63 kcal/mol, the “−ΔS” value [3] is listed as 108.0 and the “−ΔG” value [3] is listed as 10.8 kcal/mol. The Kd [3] was 23 nM.

In the case of `CC(CCc1ccccc1)NCC(O)c1ccc(O)c(C(N)=O)c1` (stereo not shown) [Labetalol], the “% Absorbed” value [1] is given as 90%.

In the case of `C[C@]12C[C@H](O)[C@H]3[C@@H](CCC4=CC(=O)CC[C@@]43C)[C@@H]1CC[C@@H]2C(=O)CO` [Corticosterone], the “% Absorbed” value [1] is given as 100% and the “Obs. Pcaco-2x10^6” value [2, 5] is given as 21.2 x10^6.

For `CC(C)NCC(O)COc1cccc2[nH]ccc12` (stereo not shown) [Pindolol], the “% Absorbed” value [1] is given as 95%, the “Permeability × 10^6 (cm/sec)” value [2, 4] is given as 16.70 × 10^6 (cm/sec) and the “Obs. Pcaco-2x10^6” value [2, 5] is given as 16.7 x10^6.

In the case of `CC(C)(C)NC[C@H](O)COc1nsnc1N1CCOCC1` [Timolol], the “% Absorbed” value [1] is listed as 72%, the “Permeability × 10^6 (cm/sec)” value [2, 4] is listed as 12.80 × 10^6 (cm/sec) and the “Obs. Pcaco-2x10^6” value [2, 5] is listed as 12.8 x10^6.

For `C[C@@H]1C[C@H]2[C@@H]3CCC4=CC(=O)C=C[C@]4(C)[C@@]3(F)[C@@H](O)C[C@]2(C)[C@@]1(O)C(=O)CO` [Dexamethasone], the “% Absorbed” value [1] is listed as 100%.

In the case of “Ac-pro-phe-his-sta-ile-NH2 [Compound U72408E]”, the “−ΔH” value [3] is listed as 14.69 kcal/mol, the “−ΔS” value [3] is listed as 79.6 and the “−ΔG” value [3] is listed as 9.9 kcal/mol. The Kd [3] was 98 nM.

For `Clc1cccc(Cl)c1N=C1NCCN1` [Clonidine], the “% Absorbed” value [1] is listed as 100%, the “Permeability × 10^6 (cm/sec)” value [2, 4] is listed as 21.80 × 10^6 (cm/sec) and the “Obs. Pcaco-2x10^6” value [2, 5] is listed as 21.8 x10^6.

For `Cc1cn([C@H]2C[C@H](N=[N+]=[N-])[C@@H](CO)O2)c(=O)[nH]c1=O` [Zidovudine], the “% Absorbed” value [1] is given as 100% and the “Permeability × 10^6 (cm/sec)” value [2, 4] is given as 6.93 × 10^6 (cm/sec).

For “Ac-pro-phe-his-phe-Y[CH2NH]phe-Mba [Compound U77451E]”, the “−ΔH” value [3] is listed as 26.70 kcal/mol, the “−ΔS” value [3] is listed as 125.3 and the “−ΔG” value [3] is listed as 12.2 kcal/mol. For the same molecule, the Kd [3] was 2.5 nM.

In the case of `O=C(O)c1ccccc1O` [Salicylic acid], the “Permeability × 10^6 (cm/sec)” value [2, 4] is listed as 22.00 × 10^6 (cm/sec) and the “Obs. Pcaco-2x10^6” value [2, 5] is listed as 22 x10^6.

In the case of `O=C(O)c1cc(/N=N/c2ccc(S(=O)(=O)Nc3ccccn3)cc2)ccc1O` [Sulfasalazine], the “Permeability × 10^6 (cm/sec)” value [2, 4] is given as 0.30 × 10^6 (cm/sec) and the “Obs. Pcaco-2x10^6” value [2, 5] is given as 0.3 x10^6.

In the case of `Nc1nc2c(ncn2COCCO)c(=O)[nH]1` [Acyclovir], the “Permeability × 10^6 (cm/sec)” value [2, 4] is listed as 0.25 × 10^6 (cm/sec) and the “Obs. Pcaco-2x10^6” value [2, 5] is listed as 0.25 x10^6.

In the case of `CC(=O)CC(c1ccccc1)c1c(O)c2ccccc2oc1=O` (stereo not shown) [Warfarin], the “Permeability × 10^6 (cm/sec)” value [2, 4] is given as 21.10 × 10^6 (cm/sec).

For `CC(C)NCC(O)COc1cccc2ccccc12` (stereo not shown) [Propranolol], the “Permeability × 10^6 (cm/sec)” value [2, 4] is listed as 21.80 × 10^6 (cm/sec).

In the case of `C=CCc1ccccc1OCC(O)CNC(C)C` (stereo not shown) [Alprenolol], the “% Absorbed” value [1] is given as 93%, the “Permeability × 10^6 (cm/sec)” value [2, 4] is given as 25.30 × 10^6 (cm/sec) and the “Obs. Pcaco-2x10^6” value [2, 5] is given as 25.3 x10^6.

For `O=C1NC(=O)C(c2ccccc2)(c2ccccc2)N1` [Phenytoin], the “% Absorbed” value [1] is given as 90%, the “Permeability × 10^6 (cm/sec)” value [2, 4] is given as 26.70 × 10^6 (cm/sec) and the “Obs. Pcaco-2x10^6” value [2, 5] is given as 26.7 x10^6.

In the case of `CN1C(=O)CN=C(c2ccccc2)c2cc(Cl)ccc21` [Diazepam], the “% Absorbed” value [1] is given as 100%.

In the case of `CNCCCN1c2ccccc2CCc2ccccc21` [Desipramine], the “% Absorbed” value [1] is listed as 95%, the “Permeability × 10^6 (cm/sec)” value [2, 4] is listed as 24.20 × 10^6 (cm/sec) and the “Obs. Pcaco-2x10^6” value [2, 5] is listed as 24.2 x10^6.

In the case of `NCCc1ccc(O)c(O)c1` [Dopamine], the “Permeability × 10^6 (cm/sec)” value [2, 4] is given as 9.33 × 10^6 (cm/sec) and the “Obs. Pcaco-2x10^6” value [2, 5] is given as 9.33 x10^6.

For `CC(C)(C)NCC(O)c1cc(O)cc(O)c1` (stereo not shown) [Terbutaline], the “% Absorbed” value [1] is listed as 73%, the “Permeability × 10^6 (cm/sec)” value [2, 4] is listed as 0.47 × 10^6 (cm/sec) and the “Obs. Pcaco-2x10^6” value [2, 5] is listed as 0.47 x10^6.
